Laboratory results from PMC6554663, “Pharmaceutical Effects of Inhibiting the Soluble Epoxide Hydrolase in Canine Osteoarthritis” (Frontiers in Pharmacology, 2019).
≈ marks a conversion by molar mass, not a printed value. Where “and” joins values, the source holds several entries; their conditions need not be identical. Equal values may be shown once. Entries after “also recorded” stand apart in the source; their conditions may differ. Read-outs that look alike come from different tables or passages of the source.

What was measured:
Solubility of sEHI = type: physicochemical; conditions: PEG300, organic solvent or mixture
Description: […] The non-dissolved compounds were filtered through a 0.22 μm centrifuge filter at 40°C and the supernatant was further diluted 10 times with methanol. The samples were analyzed by LC/MS-MS.

Microsomal stability = type: in vitro ADME, dog; conditions: for % Parent + NADPH / % Parent − NADPH: 60 min, 37°C
Description: Male and female dog liver microsomes (Xenotech) were diluted in potassium phosphate buffer (0.1M, pH 7.4), MgCl2 (3.15 mM), and sodium EDTA (1.05 mM) to a final protein concentration of 1 mg/mL. Compounds were added at 0.1 mM in methanol at 1% and microsomes were activated with 5% (v/v) NADPH regenerating system (100 μL sodium phosphate buffer (0.1M, pH 7.4), 50 μL, glucose-6-phosphate in sodium phosphate buffer (0.1M, pH 7.4), 50 μL NADP+ in sodium phosphate (0.1M, pH 7.4), and 50 μL of 100 Units/mL of […]). […] Compounds were incubated without microsomes or NADPH as negative controls.

[1] = PK analysis in satellite dogs; type: in vivo, dog; conditions: beagle, dog, whole blood; for AUC(0-t) / Cmax: detected EC1728, blood
Description: (§1) Eight satellite dogs (2 per each group) had whole blood collected for PK analysis on study Days […]. On Day 1, blood was collected immediately prior to dosing, and again at 0.25, 0.5, 1, 2, 4, 6, and 8 (±5 min) after dosing. On Day 2 through 4, blood was collected 0.5 h (±5 min) after dosing. On Day 5 blood was collected immediately prior to dosing, and again at 0.25, 0.5, 1, 2, 4, 6, 8 (±5 min), 24, 48, and 72 h (±30 min) post treatment. […] For all blood samples, a minimum of 3 mL of whole blood was collected from a suitable vein as per written and approved standard operating procedures. The blood was transferred to K2EDTA (spray dried) blood tube and inverted gently multiple times to ensure proper mixing of the blood and anticoagulant. On study Day 5, synovial fluid was collected by arthrocentesis immediately after the subject completed the questionnaire (approximately […] after dosing). Subjects were anesthetized as per written and approved Standard Operating Procedures. A minimum of 0.1 mL of synovial fluid was collected from each subject. Samples were frozen in an upright position and stored at -80°C ± 4°C before being shipped to UC Davis for analysis.
For PK analysis in the satellite group, individual parameters were calculated by fitting blood concentrations to a non-compartmental analysis using Kinetica software (Thermo Fisher Scientific version 5.1). Using the log-linear trapezoidal method, the area under the curve were calculated and were extrapolated to infinity using the last measured plasma concentration (Clast), defined as the timepoint collected 72 h after the last dose or 8 hr after the first dose on day 1, divided by the terminal slope (λz).

[2] = Blood and synovial fluid concentrations in treated osteoarthritic dogs; type: in vivo, dog; conditions: for concentration at 2 h: beagle, dog, oral, EC1728 5 mg/kg; for Blood concentration D5 / Synovial fluid concentration D1 / Synovial fluid concentration D5: po, qd x 5, detected EC1728, individual dogs;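 on Synovial fluid concentration D1: synovial fluid also sampled on Day 1 after the pain assessment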
Description: as §1
(§2) Pain and function were assessed by a questionnaire answered by blinded technicians based on observation of study animals housed at InterVivo. The survey was adapted from the canine brief pain inventory (CBPI), which was developed based on clinical questionnaires in which owners score the function and pain level of their pets with existing pain conditions ([Brown et al., 2007]). Modifications to the questionnaire attempted to account for differences between owner pain evaluation of pets and pain evaluation of laboratory dogs by technical staff. For survey administration, blinded technicians attempted to elicit objective behavior-specific measures of function and pain level across a variety of normal canine behaviors (e.g., walking, trotting, galloping, rearing, and stair-climbing, etc.). For this, one technician was responsible for soliciting the relevant behaviors from a dog using encouragement and/or food rewards, while the evaluating technician scored function and observable pain using the modified CBPI questionnaire. Subjects were tested daily on Days -7 through -3, to develop baseline scores, and again on Days 1 through 5 administered 1.5 h after dosing. Dosing occurred in the morning, and observations were recorded 1.5 h after dosing, to limit time-of-day variability. Questions are listed in Supplementary Table S3. Animals in treatment groups had blood and synovial fluid collected ∼2 h after the last dose on day 5 (immediately following the study questionnaire) to confirm plasma concentrations in treated animals. Full pharmacokinetic assessments were collected from a satellite group of animals so as not to interfere with pain assessment.

aged beagle dogs with OA = assay: Pain and function assessment (modified CBPI questionnaire) in arthritic dogs; type: in vivo, dog
Description: The study was conducted as a blinded, parallel matched-group design. Dogs were randomized into groups based on pretreatment pain scores and each group was randomly assigned a treatment. Prior to randomization, each dog was assessed for arthritis by radiograph to assess the severity of OA by presence of osteophytes, subchondral sclerosis or joint effusion each scored on a scale of 0 (least) to 3 (worst) for each of 12 joints. Severity of the radiograph score was included in the randomization protocol and distributed between the groups, and there were no statistical differences between the averages of each group. Individual radiograph scores can be found in Supplementary Table S2. […] Compounds were dissolved in PEG300 to a concentration of 2.4 mg/mL (1 mg/kg) and 12 mg/mL (5 mg/kg) and administered as approximately 5 mL in size 12 gelatin capsules (Torpac) administered once daily on days 1 through 5. Vehicle group consisted of 5 mL PEG300 in capsule. Concurrent medications were not allowed and not needed during the study.
as §2, with “Animals in treatment groups had blood and synovial fluid collected ∼2 h after the last dose on day 5 (immediately following the study questionnaire) to confirm plasma concentrations in treated animals. Full pharmacokinetic assessments were collected from a satellite group of animals so as not to interfere with pain assessment.” left out
Canine pain and function data were analyzed using ANOVA, linear mixed effects model, with Tukey adjustment in R and repeated measures ANOVA. Correlations coefficients were calculated in Graphpad Prism using the non-parametric Spearman correlation coefficient. In vitro experiments were analyzed using ANOVA in Graphpad Prism. […]

[3] = female, po, 1 mg/kg, dosed EC1728 1 mg/kg oral qd, female dog, Day 1
[4] = female, po, 1 mg/kg, dosed EC1728 1 mg/kg oral qd, female dog, Day 5
[5] = female, po, 5 mg/kg, dosed EC1728 5 mg/kg oral qd, female dog, Day 1
[6] = female, po, 5 mg/kg, dosed EC1728 5 mg/kg oral qd, female dog, Day 5
[7] = male, po, 1 mg/kg, dosed EC1728 1 mg/kg oral qd, male dog, Day 1
[8] = male, po, 1 mg/kg, dosed EC1728 1 mg/kg oral qd, male dog, Day 5
[9] = male, po, 5 mg/kg, dosed EC1728 5 mg/kg oral qd, male dog, Day 1
[10] = male, po, 5 mg/kg, dosed EC1728 5 mg/kg oral qd, male dog, Day 5

For O=C(Nc1ccc(OC(F)(F)F)cc1)N[C@H]1CC[C@H](Oc2ccc(C(=O)O)cc2)CC1 [EC1728, trans-4-{4-[3-(4-trifluoromethoxy-phenyl)-ureido]-cyclohexyloxy}-benzoic acid], the solubility (Solubility of sEHI) was 97 ± 2 mg/mL (≈ 221 mM), the “% Parent + NADPH” value (Microsomal stability; female dog liver microsomes) was 98 ± 6% and the “% Parent − NADPH” value (Microsomal stability; female dog liver microsomes) was 106 ± 9%. For the same molecule, the “% Parent + NADPH” value (Microsomal stability; male dog liver microsomes) was 103 ± 6%, the “% Parent − NADPH” value (Microsomal stability; male dog liver microsomes) was 108 ± 8% and the remaining at 1 h, 1 µM (Microsomal stability; pH 7.4, dog liver microsomes, 60-min incubation, sex not specified) was over 95%. The half-life ([1]; oral, satellite dogs, range over both compounds, Table 3, read-out: half-life) was 24 to 40 h, the AUC(0-t) [1, 3] was 1350 ng·h/mL and the Cmax [1, 3] was 308 ng/mL. For the same molecule, the AUC(0-t) [1, 4] was 155000 ng·h/mL, the Cmax [1, 4] was 4660 ng/mL and the half-life ([1]; female, po, 1 mg/kg, read-out: T1/2 (converted)) was 33 h. The AUC(0-t) [1, 5] was 4940 ng·h/mL, the Cmax [1, 5] was 1160 ng/mL and the AUC(0-t) [1, 6] was 53200 ng·h/mL. It also gave a Cmax [1, 6] of 4990 ng/mL, a half-life ([1]; female, po, 5 mg/kg, read-out: T1/2 (converted)) of 23 h and an AUC(0-t) [1, 7] of 1690 ng·h/mL. The Cmax [1, 7] was 330 ng/mL, the AUC(0-t) [1, 8] was 32000 ng·h/mL and the Cmax [1, 8] was 1900 ng/mL. It also gave a half-life ([1]; male, po, 1 mg/kg, read-out: T1/2 (converted)) of 27 h, an AUC(0-t) [1, 9] of 3760 ng·h/mL and a Cmax [1, 9] of 1100 ng/mL. For the same molecule, the AUC(0-t) [1, 10] was 96300 ng·h/mL, the Cmax [1, 10] was 1930 ng/mL and the half-life ([1]; male, po, 5 mg/kg, read-out: T1/2 (converted)) was 25 h. The concentration at 2 h ([2]; blood, 5 mg/kg, day 5, group without dog 2.4, read-out: Blood concentration, average for the remainder of the group) was 395 ng/mL, the concentration at 2 h ([2]; synovial fluid, 5 mg/kg, day 5, read-out: Synovial fluid concentration, averaged for the group) was 988 ng/mL and the concentration at 2 h ([2]; synovial fluid, 5 mg/kg, dog 2.4 (low exposure, removed from analysis), read-out: Synovial fluid concentration, dog 2.4) was 80 to 95 ng/mL. The “Blood concentration D5” value ([2]; dosed EC1728 1 mg/kg, 1 mg/kg) was 31 ng/mL and 72 ng/mL and 76 ng/mL and 64 ng/mL and 82 ng/mL and 40 ng/mL and 36 ng/mL and 171 ng/mL, the “Synovial fluid concentration D1” value ([2]; dosed EC1728 1 mg/kg, 1 mg/kg) was 331 ng/mL and 206 ng/mL and 455 ng/mL and 232 ng/mL and 483 ng/mL and 111 ng/mL and 384 ng/mL and 917 ng/mL and the “Synovial fluid concentration D5” value ([2]; dosed EC1728 1 mg/kg, 1 mg/kg) was 239 ng/mL and 206 ng/mL and 378 ng/mL and 328 ng/mL and 315 ng/mL and 171 ng/mL and 214 ng/mL and 945 ng/mL. The “Blood concentration D5” value ([2]; dosed EC1728 5 mg/kg, 5 mg/kg) was 34 ng/mL and 206 ng/mL and 348 ng/mL and 314 ng/mL and 935 ng/mL and 228 ng/mL and 493 ng/mL and 244 ng/mL, the “Synovial fluid concentration D1” value ([2]; dosed EC1728 5 mg/kg, 5 mg/kg) was 2270 ng/mL and 301 ng/mL and 1180 ng/mL and 2220 ng/mL and 1470 ng/mL and 460 ng/mL and 95 ng/mL and the “Synovial fluid concentration D5” value ([2]; dosed EC1728 5 mg/kg, 5 mg/kg) was 1000 ng/mL and 1150 ng/mL and 833 ng/mL and 1330 ng/mL and 672 ng/mL and 668 ng/mL and 2170 ng/mL and 80 ng/mL. For the same molecule, the “function scores compared to the other groups (trend)” value (aged beagle dogs with OA; 5 mg/kg oral once daily) was “tended to have increased function scores”, the “pain compared to placebo / vehicle control” value (aged beagle dogs with OA; 5 mg/kg oral once daily for 5 days, p < 0.05) was “significantly reduced pain; also recorded: significantly less pain” and the increase in function (aged beagle dogs with OA; 5 mg/kg oral once daily, after 5-days of dosing) was 16%. The “reduction in pain compared to predose values (maximum effect)” value (aged beagle dogs with OA; 5 mg/kg oral once daily, day 4, average) was 44%.
